The values that follow come from patent publication US20150165756A1, “STENCILS” (DTG International GmbH, priority 2011, published 2015).

Molecules are shown by their SMILES. Values after ≈ are worked out from the molar mass of the structure shown.

Usually solubility stands for the dissolved amount per volume that the medium holds. The term logP denotes a log measure of how a compound divides between an organic and an aqueous phase. Low readings indicate lower lipophilicity, high ones higher lipophilicity.

Assay type in all cases: physicochemical
Series [1] is described as follows: Stability of emulsions with soybean oil/MCT oily component (Example 3). The conditions noted are these: oily component comprising soybean oil and MCT. As to the method: The oily phase containing the compound (A) was then mixed with an emulsifier (1%-3% by weight) of e.g. Lipoid S 75 Lipoid GmbH Germany, and afterwards with the aqueous phase containing a small amount (2.5% by weight) of a tonicity adjusting agent (Glycerol).
Different compositions were prepared containing about 10% to 20% of the oily component (C) and about 70 to 90% of water. These compositions were mixed by using an Ultra-Turrax-homogenizer followed by one to 10 cycles of high pressure homogenisation. These emulsions prepared are then characterized by microscopic analysis and by dynamic light-scattering methods (Horiba LB 500). Furthermore, laser diffraction experiments were made with the emulsions ([…]) and electro-acoustic experiments were performed (Dispersion Technology DT 300; Malvern Zetasizer Nano ZS).
By using the above-mentioned oily component (comprising soybean oil and MCT), it was possible to prepare stable emulsions of compound (A) containing up to 2 mg of compound (A) per ml of the emulsion. The stability of the emulsions prepared with compound (A) can be described by the Zeta-function which describes the degree of repulsion of particles having similar charges. The Zeta-potential of the emulsions were tested by acoustic and optical methods described in the literature.

Series [2] can be described thus: Solubility of compound (A) in aqueous media. To be noted: room temperature. As to the method: (6-Bromo-pyrazolo[1,5-a]pyrimidine-2-yl)-(1(R)-methyl-3,4-dihydro-1H-isoquinoline-2-yl)-methanone, and which is of particular interest and has the formula (A) as described above. This compound (A) is the R-enantiomer, but both isomers (R and S) were prepared by classical chemical synthesis. The compound (A) was tested in various compositions (formulations) inter alia for CNS-applications. The compound (A) is a small molecule having a molecular weight of about 360 g/Mol, but is very little soluble in aqueous media at room temperature (about 0.001 to 0.01 mg/ml).

Series [3] is described as follows: Maximal solubility in oily components (mixing, PTFE filtration, HPLC analysis). To be noted: oil or lipid, thermodynamic from solid. As to the method:
As pyrazolopyrimidine component, (6-Bromo-pyrazolo[1,5-a]-pyrimidine-2-yl)-(1(R)-methyl-3,4-dihydro-1H-isoquinoline-2-yl)-methanone was formulated with various oily components with higher concentrations of the drug substance using specific amounts of oily components (C). The following compositions were prepared by mixing the respective oily component (C) and the pyrazolopyrimidine compound, followed by filtration (PTFE-filter) and then analysis by High Performance Liquid Chromatography.
A liquid mixture was prepared by using 100 g of soybean oil and 100 g of MCT. The soybean oil is commercially available by Caelo (Caesar & Lorenz GmbH, Hilden, Germany). The component MCT is also commercially available (e.g. by Caelo). The solubility of compound (A) in this 50:50 (w/w) mixture of two oily components (C1) and (C2) was tested. Three different compositions were prepared (containing 1 mg/ml, 1.5 mg/ml and 2.0 mg/ml) of compound (A).

The nature of series [4]: Octanol/water partition coefficient (log P). The source says: The octanol/water partition coefficient (log P) of the compounds tested according to this invention can e.g. be determined by accepted standard methods, such as OECD guideline (July 1995), “Test No. 107: Partition Coefficient (n-octanol/water): Shake Flask Method”, OECD Guidelines for the Testing of Chemicals, Section 1: Physical-Chemical properties, OECD Publishing. The log P value may also be determined according to the Draft OECD guideline OECD (2000), see OECD Draft guideline for the Testing of Chemicals: 122 Partition Coefficient (n-Octanol/Water): pH-Metric Method for Ionisable Substances.
Compound (A) can be formulated together with various oily components (C) as aqueous based, liquid compositions with higher concentration of the drug substance. These formulations can be easily applied to different animal species and human beings via application routes like the parenteral route. The compound (A) is a lipophilic compound with limited wettability and solubility in aqueous media. The lipophilicity can be expressed by the log P value, which is approximately 3 for compound (A).

Take `C[C@@H]1c2ccccc2CCN1C(=O)c1cc2ncc(Br)cn2n1` [Compound (A), (6-Bromo-pyrazolo[1,5-a]pyrimidine-2-yl)-(1(R)-methyl-3,4-dihydro-1H-isoquinoline-2-yl)-methanone]: in series [1], the “content of compound (A) in stable emulsions” value is “up to 2 mg per ml”. In addition, the solubility in series [2] was 1 to 10 µg/mL (≈ 0.00269 to 0.0269 mM); in series [3] (50:50 (w/w) mixture of soybean oil and MCT, read-out: maximum solubility in mixture of oily components) it was 8000 µg/mL (≈ 21.5 mM); in series [3] (25° C., MCT, read-out: maximal solubility in MCT), 12000 µg/mL (≈ 32.3 mM); in series [3] (25° C., castor oil, read-out: maximal solubility in castor oil), 47000 µg/mL (≈ 127 mM); in series [3] (25° C., olive oil, read-out: maximal solubility in olive oil), 6000 µg/mL (≈ 16.2 mM); in series [3] (25° C., soybean oil, read-out: maximal solubility in soybean oil) it was 7000 µg/mL (≈ 18.9 mM). Moreover, in series [4], the logP was approximately 3.
